We go through three compounds from patent publication US20260234549A1, “NON-INVASIVE TUNING OF PROTEIN ALIGNMENT” (NEW YORK UNIVERSITY IN ABU DHABI CORPORATION, priority 2023, published 2026).

The test system of series [1] is fibroblasts cultured on matrix with aligned collagen fibrils (30° condition). Nature of the series: αSMA gene expression (RT-qPCR) of fibroblasts on aligned collagen matrix treated with inhibitors. It is filed as cell-based, human. As to conditions: 3 days; 1 μM verteporfin, 10 μM blebbistatin, 20 μM Y-27632, 2 μM SB-431542; 30° aligned matrix; normalized to fibroblasts. The procedure: Quantitative gene expression analysis: Gene expression analysis for fibroblast differentiation was performed using an established protocol. Briefly, TRIzol (Thermo Fisher Scientific, Dreieich, Germany) was used to extract total RNA. The obtained RNA was converted into complementary DNA (cDNA) using a high-capacity cDNA reverse transcription kit (Applied Biosystems, Waltham, USA). The concentration and the ratio of absorbance at 260 nm and 280 nm of cDNA were quantified using a Nanodrop (Thermo Fisher Scientific, Dreieich, Germany) prior to performing gene expression analysis. Ribosomal protein S26 (RPS26) was used as a reference gene. […] The primer sequences are listed in Table 1. qPCR was performed using SYBR Green PCR Master Mix (Applied Biosystems, Waltham, USA). The qPCR procedure was set as follows: denaturation for 5 min at 95° C.; 45 cycles of denaturation (95° C., 15 s), annealing under primer-specific conditions (30 s) and target gene-specific extension (30 s at 72° C.). The fluorescence signal was measured for 20 s at 72° C. To confirm the specificity of the PCR products, melting curve analysis was performed at the end of each run. Experiments were performed in 4 replicates. Treatment with inhibitors: Fibroblasts cultured onto matrix reconstituted on inclined surfaces with an angle of 30° were treated with 1 μM verteporfin (YAP inhibitor; Sigma-Aldrich, Darmstadt, Germany), 10 μM blebbistatin (myosin inhibitor; Tocris, Bristol, United Kingdom), 20 μM Y-27632 (Rho-associated kinase (ROCK) inhibitor; Tocris, Bristol, United Kingdom) and 2 μM SB-431542 (TGF-31 receptor kinase inhibitor; Sigma-Aldrich, Darmstadt, Germany) for 3 days. After 3 days of treatment, RNA was extracted for the study of αSMA expression using qPCR, as stated in the quantitative gene analysis section. Experiments were performed in 6 replicates.
In general terms: In qPCR the cycle at which signal appears reflects the starting amount.

Series [2] has the same test system. Nature of the series: Live/dead assay (DRAQ7, flow cytometry) of inhibitor-treated fibroblasts on aligned matrix. In kind it is cell-based. Particulars: 3 days; 1 μM verteporfin, 10 μM blebbistatin, 20 μM Y-27632, 2 μM SB-431542; 30° aligned matrix. The procedure:
Treatment with inhibitors: Fibroblasts cultured onto matrix reconstituted on inclined surfaces with an angle of 30° were treated with 1 μM verteporfin (YAP inhibitor; Sigma-Aldrich, Darmstadt, Germany), 10 μM blebbistatin (myosin inhibitor; Tocris, Bristol, United Kingdom), 20 μM Y-27632 (Rho-associated kinase (ROCK) inhibitor; Tocris, Bristol, United Kingdom) and 2 μM SB-431542 (TGF-31 receptor kinase inhibitor; Sigma-Aldrich, Darmstadt, Germany) for 3 days. After 3 days of treatment, RNA was extracted for the study of αSMA expression using qPCR, as stated in the quantitative gene analysis section. Experiments were performed in 6 replicates.
Quantitative analysis of cell number and dead cells: Collagen matrices were digested using 2 mg/mL type IV collagenase (Thermo Fisher Scientific, Dreieich, Germany) for 15 min under standard cell culture conditions. Afterwards, cells were stained with DRAQ7 (dead cell staining dye; Biolegend, San Diego, USA) for 10 min on ice. Cells were analyzed using an Attune NxT Flow Cytometer equipped with an autosampler (Thermo Fisher Scientific, Dreieich, Germany). […] The percentage of dead cells was quantified by counting the number of cells that were positive for DRAQ7. At least 20,000 cells were analyzed per condition and replicate. […]

As to `C[C@@H](N)[C@H]1CC[C@H](C(=O)Nc2ccncc2)CC1` [Y-27632], in series [1], the αSMA gene expression result is recorded as “significantly reduced”.
Regarding `Cc1ccc2c(c1)C(=O)C1(O)CCN(c3ccccc3)C1=N2` (stereo not shown) [blebbistatin], the “cell death (percentage of dead cells)” value in series [2] is given as “without harming cells”. Besides, the αSMA gene expression entry in series [1] is “significantly reduced”.
Turning to `NC(=O)c1ccc(-c2nc(-c3ccc4c(c3)OCO4)c(-c3ccccn3)[nH]2)cc1` [SB-431542], the αSMA gene expression entry in series [1] is listed as “significantly reduced”.
